Reference: BindingDB's records for patent US12202835 (Beijing Scitech-Mq Pharmaceuticals, 2025)
pIC50: −log10 of the molar value.

Key:
Assay in all cases: LANCE TR-FRET Assay
[1] = target: High affinity nerve growth factor receptor (Homo sapiens, UniProt P04629)
Method: TRKA Kinase: The assay of small molecular compounds for inhibiting the activity of TRKA kinase is based on the LANCE TR-FRET technology of Perkin Elmer Inc., and the assay method is as follows:1. […] 2.5 μL of the gradient-diluted compounds were taken with a transfer pipette to a 384-well plate.3. Addition of enzyme: 5 μL of 2×TRKA kinase solution (with a concentration of 2 nM) was taken with a transfer pipette to the corresponding reaction well of the 384-well plate, mixed well and pre-reacted at room temperature for 5 minutes.4. 2.5 μL 4× Ultra ULight-labeled TK Peptide (with a concentration of 400 nM)/ATP (with a concentration of 40 μM) mixture was taken with a transfer pipette to the corresponding reaction well of the 384-well plate.5. Negative control: 2.5 μL/well 4× substrate/ATP mixture and 7.5 μL 1× Kinase Assay Buffer were added to the wells of the 384-well plate.Positive control: 2.5 μL/well 4× substrate/ATP mixture, 2.5 μL/well 1× Kinase Assay Buffer containing 4% DMSO, and 5 μL/well 2×TRKA kinase solution were added to the 384-well plate. The final concentration of DMSO in the reaction system was 1%.6. The mixture was mixed well and then centrifuged and reacted at room temperature in dark for 60 min.7. Termination of the enzymatic reaction: 5 μL of 4× stop solution was taken with a transfer pipette to the wells of the 384-well plate, mixed and then centrifuged, and reacted at room temperature for 5 min.8. Development of the reaction: 5 μL of 4× detection solution was taken with a transfer pipette to the wells of the 384-well plate for color development, and the mixture was mixed and then centrifuged and reacted at room temperature for 60 min.9. The 384-well plate was placed into the Envision plate reader and the signal was detected using the appropriate program.10.

[2] = target: T1, Tyrosine-protein kinase Mer (Homo sapiens, UniProt Q12866)
T1 sequence (Q12866 whole entry): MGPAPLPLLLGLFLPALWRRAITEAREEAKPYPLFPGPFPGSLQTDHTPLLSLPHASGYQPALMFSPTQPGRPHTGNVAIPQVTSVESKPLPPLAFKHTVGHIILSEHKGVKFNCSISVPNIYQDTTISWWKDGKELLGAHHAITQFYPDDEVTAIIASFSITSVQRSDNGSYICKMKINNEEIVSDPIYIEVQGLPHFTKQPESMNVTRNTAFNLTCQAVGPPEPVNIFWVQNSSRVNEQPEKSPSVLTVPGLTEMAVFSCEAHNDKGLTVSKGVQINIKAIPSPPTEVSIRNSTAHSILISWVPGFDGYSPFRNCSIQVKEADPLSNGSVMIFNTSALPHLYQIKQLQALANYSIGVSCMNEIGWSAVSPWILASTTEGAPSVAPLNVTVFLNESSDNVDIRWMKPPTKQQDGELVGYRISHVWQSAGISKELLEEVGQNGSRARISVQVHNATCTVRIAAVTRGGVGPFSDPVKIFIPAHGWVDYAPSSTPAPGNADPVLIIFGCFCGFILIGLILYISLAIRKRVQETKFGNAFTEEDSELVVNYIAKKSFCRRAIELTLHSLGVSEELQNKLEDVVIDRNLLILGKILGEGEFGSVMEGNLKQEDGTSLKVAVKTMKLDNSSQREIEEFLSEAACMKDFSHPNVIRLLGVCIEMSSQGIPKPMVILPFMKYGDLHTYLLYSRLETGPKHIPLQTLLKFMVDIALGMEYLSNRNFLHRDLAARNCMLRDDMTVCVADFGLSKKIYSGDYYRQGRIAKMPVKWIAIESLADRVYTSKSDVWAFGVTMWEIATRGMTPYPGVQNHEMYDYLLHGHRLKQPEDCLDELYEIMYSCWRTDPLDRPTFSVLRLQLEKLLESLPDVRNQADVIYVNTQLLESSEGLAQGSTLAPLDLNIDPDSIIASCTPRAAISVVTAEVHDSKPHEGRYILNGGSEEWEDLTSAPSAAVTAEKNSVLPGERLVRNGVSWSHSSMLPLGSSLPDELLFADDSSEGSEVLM
Method: MER Kinase: The assay of small molecular compounds for inhibiting the activity of MER kinase is based on the LANCE TR-FRET technology of Perkin Elmer Inc., and the assay method is as follows:1. Dilution of compounds: a total of 11 concentrations were obtained using a 3-fold gradient dilution from the highest concentration of 2500 nM (the maximum final concentration of the drug used in this assay was 2500 nM, and the minimum final concentration was 0.042 nM).2. 2.5 μL of the gradient-diluted compounds were taken with a transfer pipette to a 384-well plate.3. Addition of enzyme: 5 μL of 2×MER kinase solution (with a concentration of 1 nM) was taken with a transfer pipette to the corresponding reaction well of the 384-well plate, mixed well and pre-reacted at room temperature for 5 minutes.4. 2.5 μL 4× ULight-labeled Ploy GT (with a concentration of 200 nM)/ATP (with a concentration of 20 μM) mixture was taken with a transfer pipette to the corresponding reaction well of the 384-well plate.5. Negative control: 2.5 μL/well 4× substrate/ATP mixture and 7.5 μL 1× Kinase Assay Buffer were added to the wells of the 384-well plate.Positive control: 2.5 μL/well 4× substrate/ATP mixture, 2.5 μL/well 1× Kinase Assay Buffer containing 4% DMSO, and 5 μL/well 2×MER kinase solution were added to the 384-well plate. The final concentration of DMSO in the reaction system was 1%.6. The mixture was mixed well and then centrifuged and reacted at room temperature in dark for 60 min.7. Termination of the enzymatic reaction: 5 μL of 4× stop solution was taken with a transfer pipette to the wells of the 384-well plate, mixed and then centrifuged, and reacted at room temperature for 5 min.8. Development of the reaction: 5 μL of 4× detection solution was taken with a transfer pipette to the wells of the 384-well plate for color development, and the mixture was mixed and then centrifuged and reacted at room temperature for 60 min.9. The 384-well plate was placed into the Envision plate reader and the signal was detected using the appropriate program.10. Analysis and processing of the raw data:The drug concentrations and the corresponding inhibition rates were input into GraphPad Prism5 for calculation, and the inhibition rate of the compounds were calculated as follows: inhibition rate (%)=(reading of positive well−reading of experimental well)/(reading of positive control well−reading of negative control well)×100%.

[3] = target: Hepatocyte growth factor receptor (Homo sapiens, UniProt P08581)
Hepatocyte growth factor receptor, sequence (P08581 whole entry): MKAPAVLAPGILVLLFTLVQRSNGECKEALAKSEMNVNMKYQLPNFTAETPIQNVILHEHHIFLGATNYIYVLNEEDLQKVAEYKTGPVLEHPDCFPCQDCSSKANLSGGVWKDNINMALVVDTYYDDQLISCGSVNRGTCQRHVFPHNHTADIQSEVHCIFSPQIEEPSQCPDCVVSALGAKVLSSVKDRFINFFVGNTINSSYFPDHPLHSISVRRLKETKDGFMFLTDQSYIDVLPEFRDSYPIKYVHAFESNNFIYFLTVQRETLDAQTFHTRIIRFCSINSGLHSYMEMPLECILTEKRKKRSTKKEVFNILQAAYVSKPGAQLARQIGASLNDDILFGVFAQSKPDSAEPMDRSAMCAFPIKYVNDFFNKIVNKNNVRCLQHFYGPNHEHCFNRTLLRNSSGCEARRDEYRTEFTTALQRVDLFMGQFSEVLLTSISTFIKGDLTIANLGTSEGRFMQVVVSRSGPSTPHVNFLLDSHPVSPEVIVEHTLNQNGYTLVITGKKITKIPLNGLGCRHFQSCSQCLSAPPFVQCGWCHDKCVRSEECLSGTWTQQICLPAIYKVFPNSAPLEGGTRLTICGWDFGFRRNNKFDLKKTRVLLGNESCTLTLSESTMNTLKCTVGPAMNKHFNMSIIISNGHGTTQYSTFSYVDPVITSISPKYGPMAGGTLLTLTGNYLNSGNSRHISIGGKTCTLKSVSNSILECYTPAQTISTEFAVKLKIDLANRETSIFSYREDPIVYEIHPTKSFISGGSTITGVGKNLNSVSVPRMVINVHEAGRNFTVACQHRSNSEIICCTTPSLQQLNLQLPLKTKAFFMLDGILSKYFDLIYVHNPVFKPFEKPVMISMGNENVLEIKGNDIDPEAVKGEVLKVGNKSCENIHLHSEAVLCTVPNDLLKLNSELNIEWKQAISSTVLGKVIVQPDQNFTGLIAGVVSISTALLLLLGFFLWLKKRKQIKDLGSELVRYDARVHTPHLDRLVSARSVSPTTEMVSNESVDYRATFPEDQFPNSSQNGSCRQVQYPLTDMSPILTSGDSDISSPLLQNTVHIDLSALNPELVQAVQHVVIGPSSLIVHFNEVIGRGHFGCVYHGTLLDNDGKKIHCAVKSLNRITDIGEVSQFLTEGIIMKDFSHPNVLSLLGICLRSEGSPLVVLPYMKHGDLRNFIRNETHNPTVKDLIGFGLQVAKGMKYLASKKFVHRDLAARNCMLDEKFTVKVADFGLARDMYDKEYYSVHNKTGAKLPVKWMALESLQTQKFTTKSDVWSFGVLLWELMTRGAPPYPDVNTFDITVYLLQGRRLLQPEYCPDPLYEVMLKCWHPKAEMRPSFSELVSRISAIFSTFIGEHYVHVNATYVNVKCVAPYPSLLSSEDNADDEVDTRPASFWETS
Method: c-MET Kinase: The assay is based on the LANCE TR-FRET technology of Perkin Elmer Inc., and the assay method is as follows:1. Dilution of compounds: a total of 11 concentrations were obtained using a 3-fold gradient dilution from the highest concentration of 2500 nM (the maximum final concentration of the drug used in this assay was 2500 nM, and the minimum final concentration was 0.042 nM).2. 2.5 μL of the gradient-diluted compounds were taken with a transfer pipette to a 384-well plate.3. Addition of enzyme: 5 μL of 2×c-MET kinase solution (with a concentration of 2 nM) was taken with a transfer pipette to the corresponding reaction well of the 384-well plate, mixed well and pre-reacted at room temperature for 5 minutes.4. 2.5 μL 4× Ultra ULight™-JAK-1 (Tyr1023) Peptide (with a concentration of 400 nM)/ATP (with a concentration of 40 μM) mixture was taken with a transfer pipette to the corresponding reaction well of the 384-well plate.5. Negative control: 2.5 μL/well 4× substrate/ATP mixture and 7.5 μL 1× Kinase Assay Buffer were added to the wells of the 384-well plate.6. Positive control: 2.5 μL/well 4× substrate/ATP mixture, 2.5 μL/well 1× Kinase Assay Buffer containing 16% DMSO, and 5 μL/well 2× c-MET kinase solution were added to the 384-well plate. The final concentration of DMSO in the reaction system was 4%.7. The mixture was mixed well and then centrifuged and reacted at room temperature in dark for 60 min.8. Termination of the enzymatic reaction: 5 μL of 4× stop solution was taken with a transfer pipette to the wells of the 384-well plate, mixed and then centrifuged, and reacted at room temperature for 5 min.9. Development of the reaction: 5 μL of 4× detection solution was taken with a transfer pipette to the wells of the 384-well plate for color development, and the mixture was mixed and then centrifuged and reacted at room temperature for 60 min.10. The 384-well plate was placed into the Envision plate reader and the signal was detected using the appropriate program.11. Analysis and processing of the raw data:12. […]

[4] = target: Vascular endothelial growth factor receptor 2 (Homo sapiens, UniProt P35968)
Vascular endothelial growth factor receptor 2, sequence (P35968 whole entry): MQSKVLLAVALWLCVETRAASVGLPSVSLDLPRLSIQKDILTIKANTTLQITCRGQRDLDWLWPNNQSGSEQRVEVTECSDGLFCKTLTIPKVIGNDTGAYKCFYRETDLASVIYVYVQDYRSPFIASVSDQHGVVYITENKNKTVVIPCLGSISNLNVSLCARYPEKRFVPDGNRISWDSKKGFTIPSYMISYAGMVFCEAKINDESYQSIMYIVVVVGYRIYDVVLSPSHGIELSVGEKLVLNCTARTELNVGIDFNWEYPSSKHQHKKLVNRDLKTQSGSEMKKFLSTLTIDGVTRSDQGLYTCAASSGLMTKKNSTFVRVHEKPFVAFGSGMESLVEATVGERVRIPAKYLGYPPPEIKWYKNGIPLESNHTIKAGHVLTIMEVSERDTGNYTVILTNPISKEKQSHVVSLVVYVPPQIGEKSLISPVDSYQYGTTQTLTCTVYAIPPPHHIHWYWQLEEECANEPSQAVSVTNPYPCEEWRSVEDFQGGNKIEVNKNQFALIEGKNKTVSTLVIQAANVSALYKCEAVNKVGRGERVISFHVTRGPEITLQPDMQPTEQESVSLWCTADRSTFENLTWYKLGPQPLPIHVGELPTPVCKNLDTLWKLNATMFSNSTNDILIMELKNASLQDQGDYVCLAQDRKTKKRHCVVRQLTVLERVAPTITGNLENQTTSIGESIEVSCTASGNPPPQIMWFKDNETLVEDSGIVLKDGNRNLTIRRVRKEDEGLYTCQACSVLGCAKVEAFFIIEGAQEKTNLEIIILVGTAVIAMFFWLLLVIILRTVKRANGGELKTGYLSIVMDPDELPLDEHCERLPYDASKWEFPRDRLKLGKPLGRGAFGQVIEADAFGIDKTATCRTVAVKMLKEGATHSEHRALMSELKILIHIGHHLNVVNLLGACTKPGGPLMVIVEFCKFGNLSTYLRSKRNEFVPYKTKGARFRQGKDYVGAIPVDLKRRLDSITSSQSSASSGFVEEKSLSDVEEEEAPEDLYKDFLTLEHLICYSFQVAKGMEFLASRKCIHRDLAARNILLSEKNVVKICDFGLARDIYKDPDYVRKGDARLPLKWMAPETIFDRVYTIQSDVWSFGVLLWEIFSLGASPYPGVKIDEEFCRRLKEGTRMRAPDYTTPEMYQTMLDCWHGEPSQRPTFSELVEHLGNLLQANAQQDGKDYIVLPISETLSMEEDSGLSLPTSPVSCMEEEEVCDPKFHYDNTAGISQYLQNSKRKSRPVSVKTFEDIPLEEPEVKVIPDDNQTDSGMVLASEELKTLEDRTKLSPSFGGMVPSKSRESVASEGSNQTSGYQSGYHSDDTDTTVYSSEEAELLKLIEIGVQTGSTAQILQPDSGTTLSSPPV
Method: VEGFR-2 Kinase: The assay is based on the LANCE TR-FRET technology of Perkin Elmer Inc., and the assay method is as follows:1. Dilution of compounds: a total of 11 concentrations were obtained using a 3-fold gradient dilution from the highest concentration of 2500 nM (the maximum final concentration of the drug used in this assay was 2500 nM, and the minimum final concentration was 0.042 nM).2. 2.5 μL of the gradient-diluted compounds were taken with a transfer pipette to a 384-well plate.3. Addition of enzyme: 5 μL of 2×VEGFR2 kinase solution (with a concentration of 0.5 nM) was taken with a transfer pipette to the corresponding reaction well of the 384-well plate, mixed well and pre-reacted at room temperature for 30 minutes.4. 2.5 μL 4× Ultra ULight™-JAK-1 (Tyr1023) Peptide (with a concentration of 200 nM)/ATP (with a concentration of 40 μM) mixture was taken with a transfer pipette to the corresponding reaction well of the 384-well plate.5. Negative control: 2.5 μL/well 4× substrate/ATP mixture and 7.5 μL 1× Kinase Assay Buffer were added to the wells of the 384-well plate.6. Positive control: 2.5 μL/well 4× substrate/ATP mixture, 2.5 μL/well 1× Kinase Assay Buffer containing 16% DMSO, and 5 μL/well 2×VEGFR-2 kinase solution were added to the 384-well plate. […] The 384-well plate was placed into the Envision plate reader and the signal was detected using the appropriate program.11. […]

High affinity nerve growth factor receptor, sequence (P04629 whole entry): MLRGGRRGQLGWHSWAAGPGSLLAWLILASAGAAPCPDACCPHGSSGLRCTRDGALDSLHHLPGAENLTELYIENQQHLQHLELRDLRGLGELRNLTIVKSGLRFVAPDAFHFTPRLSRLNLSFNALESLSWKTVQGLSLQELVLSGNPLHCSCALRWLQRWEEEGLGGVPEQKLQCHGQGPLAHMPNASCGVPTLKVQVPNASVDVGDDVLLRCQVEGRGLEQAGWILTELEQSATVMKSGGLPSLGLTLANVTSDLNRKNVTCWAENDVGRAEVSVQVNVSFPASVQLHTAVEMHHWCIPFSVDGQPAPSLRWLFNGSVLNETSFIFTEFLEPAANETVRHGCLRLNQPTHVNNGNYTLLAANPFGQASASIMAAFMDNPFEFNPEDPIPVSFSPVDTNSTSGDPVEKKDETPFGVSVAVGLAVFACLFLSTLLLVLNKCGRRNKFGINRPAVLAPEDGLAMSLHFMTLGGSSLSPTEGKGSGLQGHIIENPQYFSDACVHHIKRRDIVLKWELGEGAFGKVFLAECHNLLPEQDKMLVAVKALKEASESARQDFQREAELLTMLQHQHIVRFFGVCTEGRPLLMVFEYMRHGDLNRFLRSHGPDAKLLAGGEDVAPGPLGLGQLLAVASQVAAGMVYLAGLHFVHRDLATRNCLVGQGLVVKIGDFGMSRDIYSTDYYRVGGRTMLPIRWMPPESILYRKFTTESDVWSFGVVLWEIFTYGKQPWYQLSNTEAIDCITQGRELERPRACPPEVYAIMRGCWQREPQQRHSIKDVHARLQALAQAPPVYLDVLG

pIC50 [1] | pIC50 [2] | pIC50 [3] | pIC50 [4] | SMILES
> 7.30 | > 7.30 |  |  | CC(C)n1cc(C(=O)Nc2ccc(Oc3ccnc4cc(OCCCCCCN(C)C)c5c(c34)OCCO5)c(F)c2)c(=O)n(-c2ccc(F)cc2)c1=O [US12202835, Example 85]
> 7.30 | > 7.30 | > 7.30 | > 7.30 | CCOc1ccn(-c2ccc(F)cc2)c(=O)c1C(=O)Nc1ccc(Oc2ccnc3cc(OCCCCCCN(C)C)c4c(c23)OCCO4)c(F)c1 [US12202835, Example 60]
> 7.30 | > 7.30 | > 7.30 |  | CN(C)CCCOc1cc2nccc(Oc3ccc(NC(=O)c4cn(C)c(=O)n(-c5ccc(F)cc5)c4=O)cc3F)c2c2c1OCCO2 [US12202835, Example 86]
> 7.30 | > 7.30 | > 7.30 | > 7.30 | CCOc1ccn(-c2ccc(F)cc2)c(=O)c1C(=O)Nc1ccc(Oc2ccnc3cc(OCCCN(C)C)c4c(c23)OCCO4)c(F)c1 [US12202835, Example 61]
